Read-outs that look alike come from different tables or passages of the source.
Key:
[1] = biological target: T1, P-glycoprotein (human MDR1) (Homo sapiens, UniProt P08183); assay: P-glycoprotein substrate recognition test (LLC-GA5-COL300 cells, transwell); type: in vitro ADME; conditions: LLC-PK1, ratio of membrane permeation coefficients for apical→basal and basal→apical directions
T1 construct: expressed in transfected cells; host or cells: LLC-GA5-COL300 (LLC-PK1 pig kidney epithelial cells expressing human MDR1)
Procedure: (Test 4: P-Glycoprotein Substrate Recognition Test)
LLC-GA5-COL300 cells (Human MDR1 expressing system derived from pig kidney derived, cultured renal epithelial cell line LLC-PK1) were cultured on a transwell. Immediately before the test, the culture medium was replaced by Hank's balanced salt solution (HBSS) and the test was then conducted. A solution of an assay compound adjusted to a final concentration of 10 μM was added to the donor side of LLC-GA5-COL300 cells and after the passage of a predetermined period of time, a specified quantity of […] was sampled from the acceptor side. The concentration of the assay compound in the sample was measured by LC-MS/MS. From the amounts of the compound that accumulated and passed into the acceptor side, membrane permeation coefficients (×10^−6 cm/sec) were calculated for apical→basal and basal→apical directions and their relative ratio (efflux ratio) was determined to evaluate the P-glycoprotein substrate recognition.

H3 receptor = biological target: T2, H3 receptor (Rattus norvegicus, UniProt Q9QYN8); assay: Rat H3 receptor binding test (N-α-methyl[3H]histamine, frontal cortex membrane fraction); conditions: N-α-methyl[3H]histamine 0.75 nM, room temperature, an hour
T2 construct: The frontal cortex dissected from rats was homogenized; from tissue; host or cells: rat frontal cortex membrane fraction
Procedure: (Test 1: Rat H3 Receptor Binding Test)
The frontal cortex dissected from rats was homogenized with a Teflon (registered trademark) homogenizer in a 50 mM Tris-HCl buffer solution (pH 7.4) containing a protease inhibitor (Complete EDTA-free; Roche Diagnostics) and 5 mM EDTA. The homogenate was centrifuged at 48,000×g for 15 minutes. The supernatant was removed and the pellet was suspended in a 50 mM Tris-HCl buffer solution (pH 7.4) containing 5 mM EDTA and centrifuged at 48,000×g for 15 minutes. The supernatant was removed and the pellet was suspended in a 50 mM Tris-HCl buffer solution (pH 7.4) containing 5 mM EDTA to give a membrane fraction. The membrane fraction (the protein content in the final reaction mixture: 75 μg), N-α-methyl[^3H]histamine (PerkinElmer; final concentration: 0.75 nM) and a test drug were mixed and subjected to reaction at room temperature for an hour. After the end of the reaction, the reaction mixture was suction filtered through a 96-well GF/C filter plate pretreated with 0.3% polyethyleneimine; the filters were then washed five times with a 50 mM Tris-HCl buffer solution (pH 7.4) containing 5 mM EDTA. After the washing, the filters were dried and a scintillator was added to measure the residual radioactivity on the filter with TopCount (PerkinElmer).
The residual radioactivity in the presence of 10 μM thioperamide was taken as indicative of nonspecific binding and the difference from the residual radioactivity in the absence of thioperamide was taken as indicative of specific binding. Each of the test drugs was dissolved and diluted in DMSO at varying concentrations to plot a dose-response curve from the corresponding residual radioactivities; the concentration of test drug that inhibited the specific binding by 50% (IC50) was determined from this curve.

[2] = Rat in vivo pharmacokinetic study (distribution among plasma, brain and cerebrospinal fluid); conditions: SD rats, single oral administration, 3 mg/kg, an hour after the administration
Procedure: (Test 3: Rat in vivo pharmacokinetic study)
SD rats were given a single oral administration of Compound No. 8, 19 or 22 at a dose of 3 mg/kg and an hour after the administration, the compound's distribution among the plasma, brain, and cerebrospinal fluid was checked. Quantification was effected by a high-performance liquid chromatography/tandem mass spectrometer API 4000 (LC-MS/MS; AB Sciex).

histamine H3 receptor = biological target: T3, histamine H3 receptor (Rattus norvegicus, UniProt Q9QYN8); assay: [35S]GTP-γ-S binding test (R(−)-α-methyl histamine stimulated, frontal cortex membrane fraction); type: biochemical; conditions: R(−)-α-methyl histamine 300 nM, [35S]GTP-γ-S 0.3 nM
T3 construct: The frontal cortex dissected from rats was homogenized; from tissue; host or cells: rat frontal cortex membrane fraction
Procedure: The frontal cortex dissected from rats was homogenized with a Teflon (registered trademark) homogenizer in a 30 mM Tris-HCl buffer solution (pH 7.4) containing 2.5 mM calcium chloride dihydrate. The homogenate was centrifuged at 48,000×g for 15 minutes. The supernatant was removed and the pellet was suspended in a 30 mM Tris-HCl buffer solution (pH 7.4) containing 2.5 mM calcium chloride dihydrate and centrifuged at 48,000×g for 15 minutes. The supernatant was removed and the pellet was suspended in a 30 mM Tris-HCl buffer solution (pH 7.4) containing 2.5 mM calcium chloride dihydrate and after incubation at 37° C. for 30 minutes, the suspension was centrifuged at 48,000×g for 15 minutes. The resulting supernatant was removed and the pellet was suspended in a 20 mM HEPES buffer solution (pH 7.4) containing 100 mM sodium chloride and 10 mM magnesium chloride to give a membrane fraction. […] After the washing, the filters were dried and a scintillator was added to measure the residual radioactivity on the filter with TopCount (PerkinElmer).
The residual radioactivity in the absence of R(−)-α-methyl histamine was taken as indicative of nonspecific binding and the difference from the residual radioactivity in the presence of R(−)-α-methyl histamine was taken as indicative of specific binding. […]

[3] = brain, read-out: intracerebral concentration
[4] = brain/plasma, read-out: brain/plasma movement ratio
[5] = cerebrospinal fluid, read-out: cerebrospinal fluid concentration
[6] = cerebrospinal fluid/plasma, read-out: cerebrospinal fluid/plasma movement ratio

T1 sequence (P08183 whole entry): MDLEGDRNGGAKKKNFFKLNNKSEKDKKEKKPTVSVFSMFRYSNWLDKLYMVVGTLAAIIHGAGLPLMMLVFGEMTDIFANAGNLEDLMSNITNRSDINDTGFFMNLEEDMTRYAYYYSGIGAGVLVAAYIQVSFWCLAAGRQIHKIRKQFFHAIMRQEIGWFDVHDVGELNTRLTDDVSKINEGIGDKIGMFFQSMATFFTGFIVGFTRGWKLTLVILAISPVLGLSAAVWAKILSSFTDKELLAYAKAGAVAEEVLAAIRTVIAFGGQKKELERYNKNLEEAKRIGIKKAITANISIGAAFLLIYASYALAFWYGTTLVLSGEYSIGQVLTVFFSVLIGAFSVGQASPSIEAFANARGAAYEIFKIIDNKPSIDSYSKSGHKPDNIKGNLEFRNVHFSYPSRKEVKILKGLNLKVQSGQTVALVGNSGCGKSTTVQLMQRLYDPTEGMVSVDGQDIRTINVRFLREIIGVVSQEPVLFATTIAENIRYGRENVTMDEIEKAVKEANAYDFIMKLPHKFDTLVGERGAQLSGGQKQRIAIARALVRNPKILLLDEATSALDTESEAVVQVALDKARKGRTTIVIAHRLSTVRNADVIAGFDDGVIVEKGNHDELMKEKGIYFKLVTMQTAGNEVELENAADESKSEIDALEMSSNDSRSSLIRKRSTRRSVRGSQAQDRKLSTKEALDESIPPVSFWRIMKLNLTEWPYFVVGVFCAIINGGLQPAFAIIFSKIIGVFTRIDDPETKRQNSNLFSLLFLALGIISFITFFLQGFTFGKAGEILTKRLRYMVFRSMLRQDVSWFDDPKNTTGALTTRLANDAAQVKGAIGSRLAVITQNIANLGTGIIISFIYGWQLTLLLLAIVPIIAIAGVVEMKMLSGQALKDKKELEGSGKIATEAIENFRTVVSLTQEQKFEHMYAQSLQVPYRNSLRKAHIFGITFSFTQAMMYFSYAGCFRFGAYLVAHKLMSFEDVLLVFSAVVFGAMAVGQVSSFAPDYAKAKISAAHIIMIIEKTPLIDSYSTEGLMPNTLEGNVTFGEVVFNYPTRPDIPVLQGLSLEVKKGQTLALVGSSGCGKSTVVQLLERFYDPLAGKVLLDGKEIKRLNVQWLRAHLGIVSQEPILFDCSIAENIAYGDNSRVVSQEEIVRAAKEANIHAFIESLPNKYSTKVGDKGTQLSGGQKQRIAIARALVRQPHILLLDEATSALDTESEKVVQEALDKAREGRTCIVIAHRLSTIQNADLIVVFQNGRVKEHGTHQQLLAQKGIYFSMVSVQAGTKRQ
T2 sequence (Q9QYN8 whole entry): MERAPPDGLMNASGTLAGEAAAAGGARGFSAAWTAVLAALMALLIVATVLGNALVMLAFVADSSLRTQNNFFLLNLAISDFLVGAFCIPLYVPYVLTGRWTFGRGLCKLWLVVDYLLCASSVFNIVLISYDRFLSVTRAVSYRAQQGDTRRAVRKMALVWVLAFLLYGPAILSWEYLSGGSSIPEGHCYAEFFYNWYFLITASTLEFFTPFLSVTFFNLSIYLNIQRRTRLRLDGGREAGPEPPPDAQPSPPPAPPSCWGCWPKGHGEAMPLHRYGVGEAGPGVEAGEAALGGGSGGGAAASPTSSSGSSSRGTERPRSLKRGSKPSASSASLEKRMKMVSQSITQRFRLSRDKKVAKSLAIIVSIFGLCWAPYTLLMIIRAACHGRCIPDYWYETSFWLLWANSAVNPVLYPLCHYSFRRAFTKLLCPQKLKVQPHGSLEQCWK
T3 sequence (Q9QYN8 whole entry): as above

Row | efflux ratio at 10 μM [1] | IC50 (H3 receptor) [nM] | concentration at 1 h [2, 3] [ng/g] | Kp at 1 h [2, 4] | concentration at 1 h [2, 5] [ng/mL] | Kp at 1 h [2, 6] | IC50 (histamine H3 receptor) [nM] | Compound
1 | 1.1 | 5.4 | 209 | 1.5 | 67.6 | 0.5 | – | OCc1cn(-c2ccc(OC3CCN(C4CCC4)CC3)cc2)nn1 [Compound No. 22, (1-{4-[(1-cyclobutylpiperidin-4-yl)oxy]phenyl}-1H-1,2,3-triazol-4-yl)methanol]
2 | 1 | 1.8 | 45.7 | 3 | 2.9 | 0.2 | ≤ 100 | O=C(c1cn(-c2ccc(OC3CCN(C4CCC4)CC3)cc2)nn1)N1CCCC1 [Compound No. 8, (1-{4-[(1-cyclobutylpiperidin-4-yl)oxy]phenyl}-1H-1,2,3-triazol-4-yl)(pyrrolidin-1-yl)methanone]
3 | 0.7 | 22 | 820 | 4.4 | 134 | 0.7 | – | CNC(=O)c1cn(-c2ccc(OC3CCN(C4CCC4)CC3)cc2)nn1 [Compound No. 19, 1-{4-[(1-cyclobutylpiperidin-4-yl)oxy]phenyl}-N-methyl-1H-1,2,3-triazole-4-carboxamide]
4 | – | 19 | – | – | – | – | – | O=C(Cc1cn(-c2ccc(OC3CCN(C4CCC4)CC3)cc2)nn1)N1CCC1 [compound 13, 1-(azetidin-1-yl)-2-(1-{4-[(1-cyclobutylpiperidin-4-yl)oxy]phenyl}-1H-1,2,3-triazol-4-yl)ethanone]
5 | – | 3.6 | – | – | – | – | – | c1cc(-n2cc(C3CC3)nn2)ccc1OC1CCN(C2CCC2)CC1 [Compound No. 4, 1-cyclobutyl-4-[4-(4-cyclopropyl-1H-1,2,3-triazol-1-yl)phenoxy]piperidine]
